Laboratory results published in US8188078B2 (Sanofi-Aventis, priority 2007, dated 2012).
One block for each compound: values may come before it.

Assays:
[1] = target: RON (Homo sapiens, UniProt Q04912); experiment: Test B: HTRF RON test in 96-well format; format: biochemical
Method: B) HTRF RON Test in 96-Well Format
The inhibitory potency (IC50) of molecules on the enzymatic activity of kinase phosphorylation RON is determined by the HTRF technique. The activity of the kinase is evaluated by measuring the phosphorylation of the substrate polyGAT by the enzyme, in the presence of ATP.
Final RON 5 nM is incubated in the presence of the molecule to be tested (for a final concentration range from 0.17 nM to 10 μM, final DMSO 3%) in buffer MOPS 10 mM pH 7, DTT 1 mM, Tween 20 0.01%. This pre-incubation is performed in 96 half-well black plates in a volume of 35 μl for 30 minutes at room temperature.
The reaction is initiated by adding 15 μl of a mixture of substrates constituted of biotinylated poly-(GAT) 1 μg/ml final and ATP 10 μM final in the presence of MgCl2 5 mM final for a final volume of 50 μl.
After incubation for 30 min at room temperature, the reaction is stopped with 30 μl of a mixture of Hepes 100 mM final pH 7, potassium fluoride 400 mM final, BSA 0.1% and EDTA 133 mM in the presence of 80 ng per well of antibodies Streptavidin ITS-XL665 Cis-Bio Int. and 18 ng per well of anti-phosphotyrosine PT66 labelled with europium cryptate.
After incubation for 2 hours at room temperature, reading is carried out at 2 wavelengths 620 nm and 665 nm in a Genios TECAN reader for the TRACE/HTRF technique and the percentage inhibition is calculated according to the 665/620 ratios.

[2] = target: T1, MET (Homo sapiens, UniProt P08581); experiment: Test C: inhibition of the autophosphorylation of MET, ELISA technique (pppY1230, 1234, 1235), MKN45 cells; format: cell-based
T1 construct: endogenous in cells; host or cells: MKN45 cells
Method: C) Inhibition of the Autophosphorylation of MET; ELISA Technique (pppY1230, 1234, 1235)
a) Cellular lysates: Sow the MKN45 cells in a 96-well plate (Cell coat BD polylysine) at 20 000 cells/well under 200 μl of medium RPMI+10% FCS+1% L-glutamine. Leave to adhere to the incubator for 24 h.
The cells are treated on the day after sowing with the products at 6 concentrations in duplicate for 1 h. At least 3 control wells are treated with the same amount of final DMSO.
Dilution of the products: Stock at 10 mM in pure DMSO—range from 10 mM to 30 μM with steps of 3 of pure DMSO—Intermediate dilutions to 1/50 in culture medium then taking of 10 μl added directly to the cells (200 μl): final range from 10000 to 30 nM.
At the end of incubation, carefully remove the supernatant and rinse with 200 μl of PBS. Then put 100 μl of lysis buffer directly in the wells on ice and incubate at 4° C. for 30 minutes. Lysis buffer: 10 mM Tris, HCl pH7.4, 100 mM NaCl, 1 mM EDTA, 1 mM EGTA, 1% Triton X-100, 10% glycerol, 0.1% SDS, 0.5% deoxycholate, 20 mM NaF, 2 mM Na3VO4, 1 mM PMSF and antiprotease cocktail.
The 100 μl of lysates are transferred to a V-bottomed polypropylene plate and ELISA is performed next or the plate is frozen at −80° C.
b) ELISA PhosphoMET BioSource Kit KH00281
In each well of the plate from the kit, add 70 μl of dilution buffer from the kit+30 μL of cell lysate or 30 μl of lysis buffer for the blank. Incubate for 2 h at room temperature, stirring gently.
Rinse the wells 4 times with 400 μl of washing buffer from the kit. Incubate with 100 μl of anti-phospho MET antibodies for 1 h at room temperature.
Rinse the wells 4 times with 400 μl of washing buffer from the kit. Incubate with 100 μl of anti-rabbit HRP antibodies for 30 minutes at room temperature (except for the wells with chromogen only).
Rinse the wells 4 times with 400 μl of washing buffer from the kit. Add 100 μL of chromogen and incubate for 30 minutes in the dark at room temperature.
Stop the reaction with 100 μl of stop solution. Read at once at […] 0.1 second in the Wallac Victor plate reader.
The products of formula (I) as defined above show cellular activity in this test between 10 nM and 10 μM.

RON, sequence (Q04912 25-1400): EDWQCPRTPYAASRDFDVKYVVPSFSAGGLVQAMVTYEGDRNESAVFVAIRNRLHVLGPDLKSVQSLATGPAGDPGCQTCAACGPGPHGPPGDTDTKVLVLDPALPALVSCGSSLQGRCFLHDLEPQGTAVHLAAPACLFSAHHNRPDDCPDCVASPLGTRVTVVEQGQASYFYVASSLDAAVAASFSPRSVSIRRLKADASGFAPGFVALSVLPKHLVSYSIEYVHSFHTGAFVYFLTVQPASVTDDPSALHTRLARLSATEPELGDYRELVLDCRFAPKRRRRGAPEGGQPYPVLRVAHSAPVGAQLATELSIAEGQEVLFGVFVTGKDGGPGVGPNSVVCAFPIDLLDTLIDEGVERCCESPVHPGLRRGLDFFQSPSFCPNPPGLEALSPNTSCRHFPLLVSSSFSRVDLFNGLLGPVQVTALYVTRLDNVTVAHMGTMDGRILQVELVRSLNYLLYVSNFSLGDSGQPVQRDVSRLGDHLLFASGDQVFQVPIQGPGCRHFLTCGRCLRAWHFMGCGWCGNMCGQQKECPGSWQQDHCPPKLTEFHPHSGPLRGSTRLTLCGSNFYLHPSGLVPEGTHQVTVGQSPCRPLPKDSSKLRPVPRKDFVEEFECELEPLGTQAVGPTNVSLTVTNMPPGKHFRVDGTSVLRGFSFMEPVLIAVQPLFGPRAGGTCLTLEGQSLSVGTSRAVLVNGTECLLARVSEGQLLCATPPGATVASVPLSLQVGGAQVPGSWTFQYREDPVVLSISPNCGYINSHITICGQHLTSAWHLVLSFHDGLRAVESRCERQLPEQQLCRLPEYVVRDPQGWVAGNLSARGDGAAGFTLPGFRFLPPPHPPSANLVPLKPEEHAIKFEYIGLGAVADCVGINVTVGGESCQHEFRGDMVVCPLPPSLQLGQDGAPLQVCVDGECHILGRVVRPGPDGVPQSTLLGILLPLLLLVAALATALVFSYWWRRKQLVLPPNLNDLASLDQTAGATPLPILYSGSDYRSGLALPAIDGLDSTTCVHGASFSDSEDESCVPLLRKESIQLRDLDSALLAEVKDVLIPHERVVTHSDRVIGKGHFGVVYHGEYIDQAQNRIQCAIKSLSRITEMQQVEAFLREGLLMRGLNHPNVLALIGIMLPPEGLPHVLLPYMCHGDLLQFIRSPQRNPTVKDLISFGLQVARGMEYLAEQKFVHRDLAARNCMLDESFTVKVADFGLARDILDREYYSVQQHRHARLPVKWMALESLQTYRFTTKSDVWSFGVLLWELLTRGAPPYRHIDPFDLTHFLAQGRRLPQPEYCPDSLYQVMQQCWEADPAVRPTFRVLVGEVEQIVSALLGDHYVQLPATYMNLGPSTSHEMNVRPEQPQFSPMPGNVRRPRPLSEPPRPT
T1 sequence (P08581 25-1390): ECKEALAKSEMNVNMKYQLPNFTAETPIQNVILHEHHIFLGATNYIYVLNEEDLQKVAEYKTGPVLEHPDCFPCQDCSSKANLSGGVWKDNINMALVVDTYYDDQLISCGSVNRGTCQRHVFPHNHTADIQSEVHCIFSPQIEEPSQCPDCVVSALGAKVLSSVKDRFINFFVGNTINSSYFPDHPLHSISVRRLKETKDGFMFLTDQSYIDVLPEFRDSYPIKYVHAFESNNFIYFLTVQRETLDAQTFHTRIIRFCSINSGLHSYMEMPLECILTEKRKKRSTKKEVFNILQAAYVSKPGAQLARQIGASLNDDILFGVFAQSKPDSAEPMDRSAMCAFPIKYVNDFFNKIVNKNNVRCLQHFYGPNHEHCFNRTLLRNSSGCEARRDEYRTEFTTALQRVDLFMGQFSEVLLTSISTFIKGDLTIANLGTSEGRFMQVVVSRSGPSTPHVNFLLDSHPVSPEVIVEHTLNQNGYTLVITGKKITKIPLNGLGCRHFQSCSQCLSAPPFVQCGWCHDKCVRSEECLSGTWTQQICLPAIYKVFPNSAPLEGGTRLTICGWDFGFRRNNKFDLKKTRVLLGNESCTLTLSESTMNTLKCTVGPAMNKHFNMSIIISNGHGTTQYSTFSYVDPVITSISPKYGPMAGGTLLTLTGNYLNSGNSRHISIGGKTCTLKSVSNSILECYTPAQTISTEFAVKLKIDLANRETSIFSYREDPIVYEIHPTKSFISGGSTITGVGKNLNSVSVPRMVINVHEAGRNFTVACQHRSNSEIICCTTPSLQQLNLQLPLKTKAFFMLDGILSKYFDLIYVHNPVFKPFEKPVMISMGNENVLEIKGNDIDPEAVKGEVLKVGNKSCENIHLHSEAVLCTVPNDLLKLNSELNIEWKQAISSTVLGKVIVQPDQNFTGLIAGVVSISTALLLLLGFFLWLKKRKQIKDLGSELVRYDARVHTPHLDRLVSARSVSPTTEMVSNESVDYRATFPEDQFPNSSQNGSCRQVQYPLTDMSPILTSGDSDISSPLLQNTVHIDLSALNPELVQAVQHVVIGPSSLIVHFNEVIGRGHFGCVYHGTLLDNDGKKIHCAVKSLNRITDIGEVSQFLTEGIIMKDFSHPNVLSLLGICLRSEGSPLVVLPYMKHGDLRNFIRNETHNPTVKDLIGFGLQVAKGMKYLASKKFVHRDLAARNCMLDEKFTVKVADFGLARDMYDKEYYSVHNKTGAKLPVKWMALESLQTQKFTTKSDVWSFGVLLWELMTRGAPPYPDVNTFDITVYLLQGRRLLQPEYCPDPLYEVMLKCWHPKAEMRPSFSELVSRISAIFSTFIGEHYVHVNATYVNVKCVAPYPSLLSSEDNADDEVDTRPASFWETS

Compound: O=C(NCCN1CCOCC1)Nc1nc2ccc(OCc3c(Cl)cccc3Cl)cc2s1 [Example 10, 1-{6-[(2,6-dichlorobenzyl)oxy]-1,3-benzothiazol-2-yl}-3-(2-morpholin-4-ylethyl)urea]
IC50 [1]: 500 to 10000 nM
IC50 [2]: 500 to 10000 nM

Compound: CC(Oc1ccc2nc(NC(=O)NCc3ccccn3)sc2c1)c1c(Cl)ccc(F)c1Cl (stereo not drawn) [Example 58, 1-{6-[1-(2,6-dichloro-3-fluorophenyl)ethoxy]-1,3-benzothiazol-2-yl}-3-(pyridin-2-ylmethyl)urea]
IC50 [1]: 500 to 10000 nM
IC50 [2]: 500 to 10000 nM

Compound: CC(Oc1ccc2nc(NC(=O)OCCN3CCOCC3)sc2c1)c1c(Cl)ccc(F)c1Cl (stereo not drawn) [Example 74]
IC50 [1]: 500 to 10000 nM
IC50 [2]: < 500 nM

Compound: CC(Oc1ccc2nc(NC(=O)NCCCN3CCCCCC3)sc2c1)c1c(Cl)ccc(F)c1Cl (stereo not drawn) [Example 48, 1-(3-azepan-1-ylpropyl)-3-{6-[1-(2,6-dichloro-3-fluorophenyl)ethoxy]-1,3-benzothiazol-2-yl}urea]
IC50 [1]: < 500 nM
IC50 [2]: < 500 nM

Compound: CC(Oc1ccc2nc(NC(=O)NCCN3CCN(C(=O)OC(C)(C)C)CC3)sc2c1)c1c(Cl)ccc(F)c1Cl (stereo not drawn) [Example 36, 1,1-dimethylethyl 4-{2-[({6-[1-(2,6-dichloro-3-fluorophenyl)ethoxy]-1,3-benzothiazol-2-yl}carbamoyl)amino]ethyl}piperazine-1-carboxylate]
IC50 [1]: 500 to 10000 nM
IC50 [2]: 500 to 10000 nM

Compound: CC(Oc1ccc2nc(NC(=O)NCCC3CCCN3C)sc2c1)c1c(Cl)ccc(F)c1Cl (stereo not drawn) [Example 53, 1-{6-[1-(2,6-dichloro-3-fluorophenyl)ethoxy]-1,3-benzothiazol-2-yl}-3-[2-(1-methylpyrrolidin-2-yl)ethyl]urea]
IC50 [1]: < 500 nM
IC50 [2]: < 500 nM

Compound: Cc1ccc(F)c(C(C)Oc2ccc3nc(NC(=O)NCCN4CCOCC4)sc3c2)c1Cl (stereo not drawn) [Example 28, 1-{6-[1-(2-chloro-6-fluoro-3-methylphenyl)ethoxy]-1,3-benzothiazol-2-yl}-3-(2-morpholin-4-ylethyl)urea]
IC50 [1]: 500 to 10000 nM
IC50 [2]: 500 to 10000 nM

Compound: CC(Oc1ccc2nc(NC(=O)NCCN3C(C)CCCC3C)sc2c1)c1c(Cl)ccc(F)c1Cl (stereo not drawn) [Example 56, 1-{6-[1-(2,6-dichloro-3-fluorophenyl)ethoxy]-1,3-benzothiazol-2-yl}-3-[2-(2,6-dimethylpiperidin-1-yl)ethyl]urea]
IC50 [1]: 500 to 10000 nM
IC50 [2]: < 500 nM

Compound: CC(Oc1ccc2nc(NC(=O)NCCN3CCOCC3)[nH]c2c1)c1cc(F)ccc1Cl (stereo not drawn) [Example 3, 1-{6-[1-(2-chloro-5-fluorophenyl)ethoxy]-1H-benzimidazol-2-yl}-3-(2-morpholin-4-ylethyl)urea]
IC50 [1]: 500 to 10000 nM
IC50 [2]: 500 to 10000 nM

Compound: CC(Oc1ccc2nc(NC(=O)NCCN3CCOCC3)sc2c1)c1c(Cl)ccc(F)c1Cl (single isomer, unassigned) [Example 25, 1-{6-[(1R*)-(2,6-dichloro-3-fluorophenyl)ethoxy]-1,3-benzothiazol-2-yl}-3-(2-morpholin-4-ylethyl)urea]
IC50 [1]: < 500 nM
IC50 [2]: < 500 nM

Compound: CC(Oc1ccc2nc(NC(=O)NCCCn3cccc3)sc2c1)c1c(Cl)ccc(F)c1Cl (stereo not drawn) [Example 40, 1-{6-[1-(2,6-dichloro-3-fluorophenyl)ethoxy]-1,3-benzothiazol-2-yl}-3-[3-(1H-pyrrol-1-yl)propyl]urea]
IC50 [1]: 500 to 10000 nM
IC50 [2]: 500 to 10000 nM

Compound: CC(Oc1ccc2nc(NC(=O)NCCN3CCOCC3)sc2c1)c1c(Cl)ccc(F)c1Cl (stereo not drawn) [Example 24, 1-{6-[1-(2,6-dichloro-3-fluorophenyl)ethoxy]-1,3-benzothiazol-2-yl}-3-(2-morpholin-4-ylethyl)urea]
IC50 [1]: < 500 nM
IC50 [2]: < 500 nM

Compound: CC(Oc1ccc2nc(NC(=O)NCCN3CCN(C)CC3)sc2c1)c1c(Cl)ccc(F)c1Cl (stereo not drawn) [Example 55, 1-{6-[1-(2,6-dichloro-3-fluorophenyl)ethoxy]-1,3-benzothiazol-2-yl}-3-[2-(4-methylpiperazin-1-yl)ethyl]urea]
IC50 [1]: < 500 nM
IC50 [2]: < 500 nM

Compound: CC(Oc1ccc2nc(NC(=O)NCCN3CCCCCC3)sc2c1)c1c(Cl)ccc(F)c1Cl (stereo not drawn) [Example 54, 1-(2-azepan-1-ylethyl)-3-{6-[1-(2,6-dichloro-3-fluorophenyl)ethoxy]-1,3-benzothiazol-2-yl}urea]
IC50 [1]: 500 to 10000 nM
IC50 [2]: < 500 nM

Compound: CC(Oc1ccc2nc(NC(=O)NCc3cccnc3)sc2c1)c1c(Cl)ccc(F)c1Cl (stereo not drawn) [Example 59, 1-{6-[1-(2,6-dichloro-3-fluorophenyl)ethoxy]-1,3-benzothiazol-2-yl}-3-(pyridin-3-ylmethyl)urea]
IC50 [1]: 500 to 10000 nM
IC50 [2]: 500 to 10000 nM

Compound: CC(Oc1cc2sc(NC(=O)NCCN3CCOCC3)nc2cc1F)c1c(Cl)ccc(F)c1Cl (stereo not drawn) [Example 31, 1-{6-[1-(2,6-dichloro-3-fluorophenyl)ethoxy]-5-fluoro-1,3-benzothiazol-2-yl}-3-(2-morpholin-4-ylethyl)urea]
IC50 [1]: < 500 nM
IC50 [2]: < 500 nM

Further lines, results first:

IC50 [1]: < 500 nM
IC50 [2]: < 500 nM
Compound: COCCCNC(=O)Nc1nc2cc(F)c(OC(C)c3c(Cl)ccc(F)c3Cl)cc2s1 (stereo not drawn) [Example 104, 1-{6-[1-(2,6-dichloro-3-fluorophenyl)ethoxy]-5-fluoro-1,3-benzothiazol-2-yl}-3-(3-methoxypropyl)urea]

test B [1]: +=
IC50 [2]: < 500 nM
Compound: CC(Oc1cc2sc(NC(=O)NCCN3CCNC(=O)C3)nc2cc1F)c1c(Cl)ccc(F)c1Cl (stereo not drawn) [Example 130, 1-{6-[1-(2,6-dichloro-3-fluorophenyl)ethoxy]-5-fluoro-1,3-benzothiazol-2-yl}-3-[2-(3-oxopiperazin-1-yl)ethyl]urea]

IC50 [1]: < 500 nM
IC50 [2]: < 500 nM
Compound: CC(Oc1cc2sc(NC(=O)NCCN3CCN(C)CC3)nc2cc1F)c1c(F)ccc(Cl)c1Cl (stereo not drawn) [Example 115, 1-{6-[1-(2,3-dichloro-6-fluorophenyl)ethoxy]-5-fluoro-1,3-benzothiazol-2-yl}-3-[2-(4-methylpiperazin-1-yl)ethyl]urea]

IC50 [1]: < 500 nM
IC50 [2]: < 500 nM
Compound: CCN1CCN(CCNC(=O)Nc2nc3cc(F)c(OC(C)c4c(Cl)ccc(F)c4Cl)cc3s2)CC1 (single isomer, unassigned) [Example 101, 1-{6-[(1R*)-1-(2,6-dichloro-3-fluorophenyl)ethoxy]-5-fluoro-1,3-benzothiazol-2-yl}-3-[2-(4-ethylpiperazin-1-yl)ethyl]urea]

IC50 [1]: 500 to 10000 nM
IC50 [2]: 500 to 10000 nM
Compound: CC(Oc1ccc2nc(NC(=O)CCCN3CCOCC3)sc2c1)c1c(Cl)ccc(F)c1Cl (stereo not drawn) [Example 65, N-{6-[1-(2,6-dichloro-3-fluorophenyl)ethoxy]-1,3-benzothiazol-2-yl}-4-(morpholin-4-yl)butanamide]

IC50 [1]: 500 to 10000 nM
IC50 [2]: < 500 nM
Compound: CC(Oc1cc2sc(NC(=O)CCCN3CCCC3)nc2cc1F)c1c(Cl)ccc(F)c1Cl (stereo not drawn) [Example 68, N-{6-[1-(2,6-dichloro-3-fluorophenyl)ethoxy]-5-fluoro-1,3-benzothiazol-2-yl}-4-(pyrrolidin-1-yl)butanamide]

IC50 [1]: 500 to 10000 nM
IC50 [2]: 500 to 10000 nM
Compound: CC(Oc1cc2sc(NC(=O)NCCN3CCCC3)nc2cc1F)c1c(Cl)ccc(Cl)c1Cl (stereo not drawn) [Example 126, 1-{5-fluoro-6-[1-(2,3,6-trichlorophenyl)ethoxy]-1,3-benzothiazol-2-yl}-3-[2-(pyrrolidin-1-yl)ethyl]urea]

IC50 [1]: < 500 nM
IC50 [2]: < 500 nM
Compound: CCN1CCN(CCNC(=O)Nc2nc3cc(F)c(OC(C)c4c(Cl)ccc(F)c4Cl)cc3s2)CC1 (stereo not drawn) [Example 100, 1-{6-[1-(2,6-dichloro-3-fluorophenyl)ethoxy]-5-fluoro-1,3-benzothiazol-2-yl}-3-[2-(4-ethylpiperazin-1-yl)ethyl]urea]
